This is an account of results in patent US9532985B2, “Tetrahydroquinoline derivatives for treating post-traumatic stress disorders” (ACTELION PHARMACEUTICALS LTD., priority 2007, dated 2017).

This assay has as its system fear-potentiated acoustic startle response in Fischer F344 rats. In words: Fear-potentiated startle response in rats. It is filed as in vivo, rat. From the text: The compounds of formula I can be administered to the animal in order to assess their effects on emotional reactivity.
Signs of decreased emotional reactivity to acoustic stimuli have been discovered in an animal model of fear potentiated acoustic startle. Anxiolytic-like activity—as assessed by decreased acoustic startle reactivity—was observed one hour after treatment with a compound of the formula I compared to vehicle (PEG400) control treatment and to active treatment with diazepam given orally. […] In human medicine, increased acoustic startle reactivity has been observed in patients suffering from PTSD anxiety compared to healthy subjects (Exaggerated acoustic startle reflex in Gulf War veterans with posttraumatic stress disorder, Am. J. Psychiatry (1996), 153(1), 64-68).
In the fear-potentiated startle procedure in rats, a neutral stimulus such as light is repetitively paired with an aversive stimulus such as mild foot shock. When an animal is presented with loud acoustic stimuli, enhanced startle responses are elicited when the startle stimulus is preceded by the light (a classically conditioned increase in fear). Benzodiazepine anxiolytics attenuate the response enhancement. Startle response was recorded by using auditory startle chambers. […]

For the compound `CNC(=O)[C@@H](c1ccccc1)N1CCc2cc(OC)c(OC)cc2[C@@H]1CCc1ccc(C(F)(F)F)cc1.Cl` [Compound A, (R)-2-{(S)-6,7-dimethoxy-1-[2-(4-trifluoromethyl-phenyl)-ethyl]-3,4-dihydro-1H-isoquinolin-2-yl}-N-methyl-2-phenyl-acetamide hydrochloride], under “oral 107 mg/kg, one hour after treatment, compared with vehicle (PEG400) group control 1”, the startle response amplitude entry was “reduces in a significant manner the startle response amplitude”. As for `CN1C(=O)CN=C(c2ccccc2)c2cc(Cl)ccc21` [diazepam], for the setting “oral 3 mg/kg, compared with vehicle group control 2”, the startle response amplitude result is on record as “reduces in a significant manner the startle response amplitude”.
